{"source": "patent US20260207600A1", "about": "“METHODS OF TREATMENT WITH MYOSIN MODULATOR” (MYOKARDIA, INC., priority 2019, published 2026)", "key": {"[1]": {"tested_on": "isolated adult rat ventricular myocytes", "test": "Counteraction of mavacamten effects by isoproterenol in isolated myocytes in vitro", "format": "cell-based", "text": "(§1) Additional supportive measures, e.g., intravenous volume supplementation and/or the use of arterial vasoconstrictor agents (a adrenergic agonists) may complement the use of a β adrenergic agonist."}, "[2]": {"test": "Stable form analysis (slurry experiments, XRPD)", "format": "physicochemical", "settings": "for XRPD Result (stable form screening): Lot 2-4", "method": "Slurrying. Slurries of the API were prepared by adding sufficient solids to a given solvent or solvent system at ambient conditions or at elevated temperature such that undissolved solids were present. The mixtures were then agitated in a closed vial at ambient or elevated temperature for an extended period of time. Solids were collected by vacuum filtration and analyzed.\nA stable form analysis of the API (Lot 2-4) was performed to identify the preferred solid form within typical process conditions (e.g., ambient to 85° C., atmospheric pressure, with a variety of solvents including water).\nA total of 17 slurries were held stirring at ambient temperature or with temperature cycling between 20 and 30 or 40° C. (with a few brief exposures to approximately 46° C.) for extended time periods (Table 13.4). Solids from the slurry experiments were filtered, air-dried, then analyzed by XRPD."}, "[3]": {"test": "Half-life and clearance analysis from early clinical studies by CYP2C19 metabolizer phenotype", "format": "in vivo, human", "settings": "for half-life / clearance: oral; for clearance: read-out: clearance rate", "method": "The effect of CYP2C19 phenotype and genotype on the metabolism function of the CYP2C19 enzyme has been presently investigated. […] Specifically, normal metabolizers typically have a half-life of from about 6 to about 9 days, e.g., about 7 days (1 week), whereas poor metabolizers have a longer half-life, e.g., from about 12 to about 30 days, or often from about 16 to about 28 days based on current data in humans.\nHalf-life and clearance rate were analyzed after a single oral dose. Clearance rate was calculated as CL=Dose*F/AUCinf. […] Half-life and clearance rate were analyzed after the last dose upon reaching steady state. Clearance rate was calculated as CL,ss=Dose*F/AUC(0-T). Both trials were combined and analyzed by one-way ANOVA, followed by Tukey's multiple comparison test.\nUM (rapid/ultra-rapid metabolizer) is *1/*17 or *17/*17; EM (extensive metabolizer) is *1/*1; IM (intermediate metabolizer) is *1/*2 or *17/*2; and PM (poor metabolizer) is *2/*2 or *2/*3.\nSimilar studies were performed for CYP3A5 and CYP2C9 polymorphisms."}, "anaesthetized rats": {"tested_on": "anaesthetized rats", "test": "Counteraction of mavacamten effects by dobutamine in anaesthetized rats", "format": "in vivo, rat", "text": "as §1"}, "[4]": {"settings": "human, in vivo, CYP2C19 normal metabolizers"}, "[5]": {"settings": "human, in vivo, CYP2C19 poor metabolizers"}}, "note": "“Also recorded” adds a separate entry of the source. Where two headings read alike, the source gives them in different places."}
{"smiles": "CC(C)n1c(=O)cc(N[C@@H](C)c2ccccc2)[nH]c1=O", "note": "[mavacamten, (S)-3-Isopropyl-6-((1-phenylethyl)amino)pyrimidine-2, 4(1H,3H)-dione]", "values": [{"measurement": "Reversal of pharmacologic effects by β adrenergic agonist", "setting": "[1]", "result": "can be counteracted by β adrenergic agonists"}, {"measurement": "solid form obtained from slurry experiments (XRPD)", "setting": "[2]; 17 slurries, ambient temperature or cycling between 20 and 30 or 40° C., extended time", "result": "All slurry experiments yielded Form A, except one with chloroform"}, {"measurement": "XRPD Result (stable form screening)", "setting": "[2]; Anisole, Slurry, ~50° C., 4 d", "result": "Form A"}, {"measurement": "XRPD Result (stable form screening)", "setting": "[2]; CHCl3, TC, 20 to 30° C., 10 d", "result": "Form A +"}, {"measurement": "XRPD Result (stable form screening)", "setting": "[2]; DCM, Slurry, RT, 17 d", "result": "Form A"}, {"measurement": "XRPD Result (stable form screening)", "setting": "[2]; DMF:CHCl3 (20:80), Slurry, RT, 17 d", "result": "Form A"}, {"measurement": "XRPD Result (stable form screening)", "setting": "[2]; DMF:EtOH (20:80), Slurry, RT, 17 d", "result": "Form A"}, {"measurement": "XRPD Result (stable form screening)", "setting": "[2]; DMSO:water (90:10), Slurry, RT, 3 d, TC, 20 to 30° C., 10 d", "result": "Form A"}, {"measurement": "XRPD Result (stable form screening)", "setting": "[2]; EtOAc, TC 20 to 40° C., 10 d", "result": "Form A"}, {"measurement": "XRPD Result (stable form screening)", "setting": "[2]; EtOH, TC 20 to 40° C., 10 d", "result": "Form A"}, {"measurement": "XRPD Result (stable form screening)", "setting": "[2]; HFIPA:acetone (10:90), Slurry, RT, 17 d", "result": "Form A"}, {"measurement": "XRPD Result (stable form screening)", "setting": "[2]; MIBK, Slurry, ~80° C., 1 d", "result": "Form A"}, {"measurement": "XRPD Result (stable form screening)", "setting": "[2]; MeOH, Slurry, RT, 3 d, TC, 20 to 30° C., 10 d", "result": "Form A"}, {"measurement": "XRPD Result (stable form screening)", "setting": "[2]; NMP:MeOH (10:90), Slurry, RT, 17 d", "result": "Form A"}, {"measurement": "XRPD Result (stable form screening)", "setting": "[2]; NMP:toluene (80:20), Slurry, RT, 17 d", "result": "Form A"}, {"measurement": "XRPD Result (stable form screening)", "setting": "[2]; NMP:water (50:50), Slurry, RT, 17 d", "result": "Form A"}, {"measurement": "XRPD Result (stable form screening)", "setting": "[2]; THF:water (75:25), TC, 20 to 30° C., 10 d", "result": "Form A"}, {"measurement": "XRPD Result (stable form screening)", "setting": "[2]; THF, Slurry, RT, 3 d, TC, 20 to 40° C., 10 d", "result": "Form A"}, {"measurement": "XRPD Result (stable form screening)", "setting": "[2]; iPrOH, TC, 20 to 40° C., 10 d", "result": "Form A"}, {"measurement": "clearance and terminal half-life by phenotype", "setting": "[3]; CYP2C19 poor metabolizers vs other patients (UM, EM and IM)", "result": "lower clearance and longer terminal half-life"}, {"measurement": "increase in exposure", "setting": "[3]; PM genotype compared to normal CYP 2C19 metabolizer (NM) genotype", "result": "approximately 4 fold"}, {"measurement": "effect of CYP3A4/5 (CYP3A5) and CYP2C9 polymorphisms on pharmacokinetics (half-life, clearance rate)", "setting": "[3]; human, in vivo", "result": "insignificant effects; also recorded: did not have a significant effect"}, {"measurement": "half-life", "setting": "[3]; [4]", "result": "6 to 9", "unit": "days"}, {"measurement": "clearance", "setting": "[3]; [4]", "result": "10 to 100", "unit": "mL/min"}, {"measurement": "half-life", "setting": "[3]; [5]", "result": "12 to 30", "unit": "days"}, {"measurement": "clearance", "setting": "[3]; [5]", "result": "< 15", "unit": "mL/min"}, {"measurement": "Reversal of pharmacologic effects by β adrenergic agonist", "setting": "anaesthetized rats", "result": "can be counteracted by β adrenergic agonists"}]}
